US20130203097A1 (priority 2010, published 2013)
*: point of attachment. pNA = O=[N+]([O-])c1ccc(N*)cc1; MeOSuc = COC(=O)CCC(=O)*

Assays:
Pseudomonas aeruginosa = conditions: cited from earlier work
[1] = system: strains of Legionella pneumophila; conditions: out of 283 strains of Legionella pneumophila tested; cited from earlier work
[2] = system: other species of Legionella; conditions: cited from earlier work
[3] = system: CC(=O)N[C@@H](CO)C(=O)N[C@@H](CCCCN)C(=O)NCC(=O)N[C@@H](Cc1ccc2ccc3cccc4ccc1c2c34)C(=O)N[C@@H](Cc1ccc(O)c([N+](=O)[O-])c1)C(=O)NCC(=O)NCC(=O)N[C@@H](CCCCN)C(N)=O; experiment: purified protein, by the assay type; conditions: pH 7.0; 37.0 °C

Substance	Pseudomonas aeruginosa that responded positively (Pseudomonas aeruginosa)	strains that degraded the substrate [1]	species that responded positively [2]	Km [3] [µM]	kcat [3] [s⁻¹]
MeOSuc-Arg-Pro-Tyr-pNA [Compound S-2586]	22	282	2	–	–
Msp (Legionella pneumophila)	–	–	–	6.8 ± 0.6	23.9 ± 0.7
